Read-outs that look alike come from different tables or passages of the source.
Columns and labels:
[1] = from COc1c(Cl)cc(C(=O)O)cc1S(=O)(=O)Cc1cc(-c2ccccc2OCCN)c(F)cc1F; amide bond; 15-membered ring; T3P/DIPEA; DMF; 48.0 mM; 21.0 h
[2] = 15-membered ring
[3] = molecular target: Recombinant human ACLY full length protein (Homo sapiens (Human), UniProt P53396); test: hACLY ADP-Glo activity assay; format: biochemical; conditions: 0.5 nM ACLY; 15 μM sodium citrate, 1 μM coenzyme A, 80 μM ATP; ADP formed, luminescence; read-out: ADP-Glo IC50 GMean
Method: Compounds of the disclosure were evaluated for their efficacy in inhibiting hACLY using an ADP-Glo™ assays that measure ADP formed from the enzymatic activity of hACLY.
Test compounds were 3-fold serially diluted in DMSO over 11-point concentration range and dispensed onto a 384-well plate. Recombinant human ACLY full length protein was purified. Concentrations of ACLY protein, sodium citrate, coenzyme A, and ATP in the reaction were optimized for standardized homogenous enzyme assay using ADP-Glo™ Kinase (Promega Inc.). The assay measured ADP formed from the enzymatic reaction.
The reaction buffer consisted of the assay buffer (50 mM HEPES pH 8.0, 10 mM MgCl2, 4 mM 1,4-Dithiothreitol, 0.01% Brij® 35).
ACLY protein (0.5 nM) was added to the prepared reaction buffer, and the mixture was dispensed into the assay plate and incubated for 30 minutes at room temperature. Next, 15 μM sodium citrate, 1 μM coenzyme A, and 80 μM ATP were added into the assay plate and incubated for 60 minutes at room temperature. The final reaction volume for each well was 5 μL.
5 μL of ADP-Glo™ reagent was added, and the mixture was incubated for 40 minutes at room temperature. 10 μl ADP-Glo™ detection reagent was added, and the mixture was incubated for 30 minutes at room temperature. Luminescence was determined using EnVision microplate reader with ultra-luminescence module (Perkin Elmer Inc). Concentration-response curve-fitting and IC50 determination was performed using Xlfit Software (version 5.5.0) with a four-parameter logistic regression fit model.

HepG2 cells = test: Fatty acid synthesis (FAS) assay in HepG2 cells; format: cell-based; conditions: Homo sapiens, 1.5 h, 14C-citrate 50 μM, 90 min, read-out: FAS IC50 GMean
Method: HepG2 cells were seeded into white clear-bottom 96-well plates (50,000/well) coated with collagen and incubated at 37° C. for 16-24 hours. Thereafter the plates were washed once with 100 μL PBS (+CaCl2+MgCl2) and 50 μL assay medium ([…] containing 11 mM glucose, 10 mM HEPES and 1 nM Insulin) per well was added. Test substances in assay medium were added (10 μL, 0.5% DMSO) and incubated for 20 min at 37° C. After that 10 μL assay medium containing ^14C-citrate (final concentration 50 μM) and PrestoBlue reagent (lx final concentration; ThermoFisher) were added and incubated for 90 min (37° C., 5% CO2). Cell viability was measured (Multiskan FC, microplate reader, absorbance 570 nm). Medium was removed by inverting the plate and cells were washed once with 100 μL ice-cold PBS. Cells were lysed with 50 μL lysis buffer (0.1 N NaOH, 0.1% Triton X-100) and plate was sealed with Tape Pads and vortexed. For the saponification reaction plates were incubated for 16-24 hours at 80° C. Seals were removed and 200 μL 0.1 N HCl was added for neutralisation of the pH. 150 μL from each well was transferred into the corresponding wells of a 96-well Flash plate (Perkin Elmer) and sealed with TopSeal A (Perkin Elmer). Plates were incubated for 4 h at 70° C., and for 1 h at room temperature in the dark. Signal of ^14C radioactivity was measured (TopCount). As a positive control 5 mM unlabelled citrate or C75 (Sigma, C5490) was applied.

ACLY [4] = molecular target: T1, ACLY (Homo sapiens (Human), UniProt P53396); test: InCell Pulse assay (permeate HEK293 cells, bind to and stabilize ACLY); format: cell-based; conditions: HEK293 cells transfected with pICP-ACLY(FL)-ePL; 1 hour at 37° C., 55° C. heat pulse 10 minutes; read-out: InCell Pulse IC50 GMean
Outline: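 HEK293 cells transiently expressing full-length ACLY-ePL were exposed in OptiMEM to 11-point, 3-fold compound dilutions for 1 h at 37 °C, heat-pulsed 10 min at 55 °C, then lysed for enzyme-fragment complementation luminescence. Four-parameter fit, normalised to 0.5% DMSO and 1 μM NDI-094311.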

ACLY [5] = molecular target: T1, ACLY; test: Human ACLY (hACLY) RF/MS activity assay; format: biochemical; conditions: 1 nM hACLY; 30 min pre-incubation; 15 μM Coenzyme A, 50 μM ATP, 50 μM citrate; CoA to Acetyl-CoA by RF/MS; read-out: RFMS IC50 GMean
Outline: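 RapidFire MS read CoA-to-acetyl-CoA conversion as a substrate/product ratio after 30 min at RT (20° C) with final 15 μM CoA, 50 μM ATP, 50 μM citrate. Before substrate addition, 1 nM enzyme sat 30 min with compound (top 10 μM, two-fold dilutions; 1% DMSO) in pH 8.0 Hepes/MgCl2/NaCl/DTT buffer.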

T1 sequence (P53396 whole entry, the tested form may be a part): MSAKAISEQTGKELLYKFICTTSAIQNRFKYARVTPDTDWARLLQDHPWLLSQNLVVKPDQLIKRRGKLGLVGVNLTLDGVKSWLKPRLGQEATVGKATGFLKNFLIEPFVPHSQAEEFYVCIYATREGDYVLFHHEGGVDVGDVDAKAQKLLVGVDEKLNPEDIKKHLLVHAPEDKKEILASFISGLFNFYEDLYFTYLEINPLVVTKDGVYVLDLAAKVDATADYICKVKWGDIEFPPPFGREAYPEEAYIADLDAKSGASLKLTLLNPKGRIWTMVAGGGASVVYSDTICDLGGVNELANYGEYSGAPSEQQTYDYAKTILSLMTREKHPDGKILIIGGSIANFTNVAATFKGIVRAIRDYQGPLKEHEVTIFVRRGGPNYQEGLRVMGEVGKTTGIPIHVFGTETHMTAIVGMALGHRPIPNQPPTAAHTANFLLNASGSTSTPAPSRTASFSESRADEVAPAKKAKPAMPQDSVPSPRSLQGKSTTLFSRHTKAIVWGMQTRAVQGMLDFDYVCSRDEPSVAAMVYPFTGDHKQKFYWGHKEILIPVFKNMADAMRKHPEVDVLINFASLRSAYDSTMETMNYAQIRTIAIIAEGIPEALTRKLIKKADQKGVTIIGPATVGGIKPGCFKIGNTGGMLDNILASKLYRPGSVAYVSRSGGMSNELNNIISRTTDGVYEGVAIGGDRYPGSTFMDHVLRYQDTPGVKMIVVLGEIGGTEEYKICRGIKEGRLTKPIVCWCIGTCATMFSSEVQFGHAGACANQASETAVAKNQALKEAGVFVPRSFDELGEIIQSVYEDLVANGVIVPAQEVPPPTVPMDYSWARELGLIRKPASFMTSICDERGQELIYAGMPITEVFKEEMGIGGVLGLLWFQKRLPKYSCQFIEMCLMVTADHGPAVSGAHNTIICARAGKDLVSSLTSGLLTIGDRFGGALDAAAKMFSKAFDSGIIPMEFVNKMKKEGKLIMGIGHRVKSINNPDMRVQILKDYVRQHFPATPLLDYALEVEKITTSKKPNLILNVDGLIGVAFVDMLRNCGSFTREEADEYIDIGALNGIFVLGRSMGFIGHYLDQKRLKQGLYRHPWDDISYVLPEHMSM
Recombinant human ACLY full length protein, sequence (P53396 whole entry): as the sequence (P53396 whole entry, the tested form may be a part) above

Compound: COc1c(Cl)cc2cc1S(=O)(=O)Cc1cc(c(F)cc1F)-c1ccccc1OCCNC2=O
- ring closure, crude yield [1]: 81%

Compound: COc1c(Cl)cc2cc1S(=O)(=O)Nc1cc(c(F)cc1F)-c1ccccc1OCCOC2=O
- ring closure, yield after HPLC ([2]; from COc1c(Cl)cc(C(=O)O)cc1S(=O)(=O)Nc1cc(-c2ccccc2OCCO)c(F)cc1F, ester bond, 2,4,6-trichlorobenzoyl chloride/DIEA/DMAP, THF, 13.1 mM, 65.0 °C, 4.0 h): 18%

Compound: O=C1NCCOc2ccccc2-c2cc(c(F)cc2F)NS(=O)(=O)c2cc1cc(Cl)c2O [Compound 2, 15-chloro-21,23-difluoro-16-hydroxy-8-oxa-18lambda6-thia-11,19-diazatetracyclo[18.3.1.1^13,17.0^2,7]pentacosa-1(24),2,4,6,13,15,17(25),20,22-nonaene-12,18,18-trione]
- IC50 [3]: 0.001 to 0.01 µM
- IC50 (HepG2 cells): ≥ 50 µM
- IC50 (ACLY [4]): 1 to 50 µM
- IC50 (ACLY [5]): 0.02 to 0.1 µM

Compound: CN1CCOc2ccccc2-c2cc(c(F)cc2F)NS(=O)(=O)c2cc(cc(Cl)c2O)C1=O [Compound 4, 15-chloro-21,23-difluoro-16-hydroxy-11-methyl-8-oxa-18lambda6-thia-11,19-diazatetracyclo[18.3.1.1^13,17.0^2,7]pentacosa-1(24),2,4,6,13,15,17(25),20,22-nonaene-12,18,18-trione]
- IC50 [3]: 0.001 to 0.01 µM
- IC50 (HepG2 cells): 10 to 50 µM
- IC50 (ACLY [4]): 1 to 50 µM
- IC50 (ACLY [5]): 0.02 to 0.1 µM

Compound: O=C1NCCCOc2ccccc2-c2cc(c(F)cc2F)NS(=O)(=O)c2cc1cc(Cl)c2O [Compound 6, 16-chloro-22,24-difluoro-17-hydroxy-8-oxa-19lambda6-thia-12,20-diazatetracyclo[19.3.1.1^14,18.0^2,7]hexacosa-1(25),2,4,6,14,16,18(26),21,23-nonaene-13,19,19-trione]
- IC50 [3]: 0.01 to 1 µM
- IC50 (HepG2 cells): 10 to 50 µM
- IC50 (ACLY [4]): ≥ 50 µM
- IC50 (ACLY [5]): 0.1 to 10 µM

Compound: O=C1OCCOc2ccccc2-c2cc(c(F)cc2F)NS(=O)(=O)c2cc1cc(Cl)c2O [Compound 7, 15-chloro-21,23-difluoro-16-hydroxy-8,11-dioxa-18lambda6-thia-19-azatetracyclo[18.3.1.1^13,170^2,7]pentacosa-1(24),2,4,6,13,15,17(25),20,22-nonaene-12,18,18-trione]
- IC50 (HepG2 cells): < 2 µM

Compound: O=C1NCCCc2ccccc2-c2cc(c(F)cc2F)NS(=O)(=O)c2cc1cc(Cl)c2O [Compound 8, 15-chloro-21,23-difluoro-16-hydroxy-18lambda6-thia-11,19-diazatetracyclo[18.3.1.1^13,17.0^2,7]pentacosa-1(24),2,4,6,13,15,17(25),20,22-nonaene-12,18,18-trione]
- IC50 [3]: 0.001 to 0.01 µM
- IC50 (HepG2 cells): 10 to 50 µM
- IC50 (ACLY [4]): 0.3 to 1 µM
- IC50 (ACLY [5]): 0.02 to 0.1 µM

Compound: CN1c2cc(c(F)cc2F)-c2ccccc2OCCNC(=O)c2cc(Cl)c(O)c(c2)S1(=O)=O [Compound 9, 15-chloro-21,23-difluoro-16-hydroxy-19-methyl-8-oxa-18lambda6-thia-11,19-diazatetracyclo[18.3.1.1^13,17.0^2,7]pentacosa-1(24),2,4,6,13,15,17(25),20,22-nonaene-12,18,18-trione]
- IC50 [3]: ≥ 1 µM
- IC50 (HepG2 cells): ≥ 50 µM
- IC50 (ACLY [4]): ≥ 50 µM
- IC50 (ACLY [5]): ≥ 10 µM

Compound: CN1CCCc2ccccc2-c2cc(c(F)cc2F)NS(=O)(=O)c2cc(cc(Cl)c2O)C1=O [Compound 10, 15-chloro-21,23-difluoro-16-hydroxy-11-methyl-18lambda6-thia-11,19-diazatetracyclo[18.3.1.1^13,17.0^2,7]pentacosa-1(24),2,4,6,13,15,17(25),20,22-nonaene-12,18,18-trione]
- IC50 [3]: 0.001 to 0.01 µM
- IC50 (HepG2 cells): 2 to 10 µM
- IC50 (ACLY [4]): < 0.3 µM
- IC50 (ACLY [5]): 0.02 to 0.1 µM

Compound: O=C1NCCOc2ccccc2-c2cc(c(F)cc2F)NS(=O)(=O)c2cc1cc(Cl)c2OC(F)F [Compound 15, 15-chloro-16-(difluoromethoxy)-21,23-difluoro-8-oxa-18lambda6-thia-11,19-diazatetracyclo[18.3.1.1^13,17.0^2,7]pentacosa-1(24),2,4,6,13,15,17(25),20,22-nonaene-12,18,18-trione]
- IC50 [3]: ≥ 1 µM
- IC50 (HepG2 cells): 2 to 10 µM
- IC50 (ACLY [4]): ≥ 50 µM
- IC50 (ACLY [5]): ≥ 10 µM
- ring closure, yield after HPLC ([2]; from 3-[[5-[2-(2-aminoethoxy)phenyl]-2,4-difluoro-phenyl]sulfamoyl]-5-chloro-4-(difluoromethoxy)benzoic acid·HCl, amide bond, T3P/DIPEA, DMF, 18.1 mM): 48%

Compound: O=C1OCCCc2ccccc2-c2cc(c(F)cc2F)NS(=O)(=O)c2cc1cc(Cl)c2O [Compound 16, 15-chloro-21,23-difluoro-16-hydroxy-11-oxa-18lambda6-thia-19-azatetracyclo[18.3.1.1^13,17.0^2,7]pentacosa-1(24),2,4,6,13,15,17(25),20,22-nonaene-12,18,18-trione]
- IC50 [3]: < 0.001 µM
- IC50 (HepG2 cells): < 2 µM
- IC50 (ACLY [4]): < 0.3 µM
- IC50 (ACLY [5]): 0.02 to 0.1 µM

Compound: C[C@H]1COc2ccccc2-c2cc(c(F)cc2F)NS(=O)(=O)c2cc(cc(Cl)c2O)C(=O)N1 [Compound 17, (10S)-15-chloro-21,23-difluoro-16-hydroxy-10-methyl-8-oxa-18lambda6-thia-11,19-diazatetracyclo[18.3.1.1^13,17.0^2,7]pentacosa-1(24),2,4,6,13,15,17(25),20,22-nonaene-12,18,18-trione]
- IC50 [3]: 0.01 to 1 µM
- IC50 (HepG2 cells): ≥ 50 µM
- IC50 (ACLY [4]): ≥ 50 µM
- IC50 (ACLY [5]): 0.1 to 10 µM

Compound: O=C1OCCOc2cc(Cl)ccc2-c2cc(c(F)cc2F)NS(=O)(=O)c2cc1cc(Cl)c2O [Compound 18, 5,15-dichloro-21,23-difluoro-16-hydroxy-8,11-dioxa-18lambda6-thia-19-azatetracyclo[18.3.1.1^13,17.0^2,7]pentacosa-1(24),2,4,6,13,15,17(25),20,22-nonaene-12,18,18-trione]
- IC50 [3]: 0.001 to 0.01 µM
- IC50 (HepG2 cells): 2 to 10 µM
- IC50 (ACLY [4]): 0.3 to 1 µM
- IC50 (ACLY [5]): 0.02 to 0.1 µM
